Measured values taken from US5059615A, “Antimycotically active cyclopropyl-substituted azolylmethylcarbinols” (Bayer Aktiengesellschaft, priority 1988, dated 1991).
Values after ≈ are worked out from the molar mass of the structure shown.

Columns and labels:
[1] = tested on: Aspergillus fumigatus; experiment: Antimycotic in vitro activity, serial dilution test (MIC); format: cell-based; settings: Sabouraud's test medium, 28-37° C., 96 hours, read-out: MIC values in μg/ml of nutrient medium
Method: (§1) The in vitro tests were carried out in a serial dilution test using inocula of microorganisms of on average 5×10^4 to 10^5 microorganisms/ml of substrate. The nutrient medium used was a) for dermatophytes and Hyphomycetes Sabouraud's test medium The incubation temperature was 28° C. to 37° C., and the incubation time was 24 to 96 hours with yeasts and 96 hours with dermatophytes and Hyphomycetes.

[2] = tested on: Trichophyton mentagrophytes; experiment: as above; format: cell-based; settings: Trichophyton mentagr., Sabouraud's test medium, 28-37° C., 96 hours, read-out: MIC values in μg/ml of nutrient medium
Method: as §1

[3] = tested on: Torulopsis glabrata; experiment: as above; format: cell-based; settings: Nakaseomyces glabratus, meat extract-dextrose broth, 28-37° C., 24 to 96 hours, read-out: MIC values in μg/ml of nutrient medium
Method: as §1, with “b)” for “a)”, “yeasts meat extract-dextrose broth.” for “dermatophytes and Hyphomycetes Sabouraud's test medium”

[4] = tested on: Candida albicans; experiment: as above; format: cell-based; settings: for MIC: Candida albicans, meat extract-dextrose broth, 28-37° C., 24 to 96 hours, read-out: MIC values in μg/ml of nutrient medium; for activity compared with the known compounds (A) and (B): serial dilution test, in particular against Candida albicans
Method: as §1, with “b)” for “a)”, “yeasts meat extract-dextrose broth.” for “dermatophytes and Hyphomycetes Sabouraud's test medium”

[5] = tested on: Candida cells; experiment: Antimycotic in vivo activity (oral) in mouse candidosis; parameters: species or system Mice of the SPF-CF type; settings: for Action / surviving on the 6th day p.i.: 10-100 mg/kg one hour before and seven hours after infection; for Action: survival on the 6th day p.i.; for surviving on the 6th day p.i.: untreated about 5%; for action (in words) / action compared with the known compounds (C) and (D): mouse candidosis
Method: Mice of the SPF-CF type were infected intravenously with 1-2×10^6exponentially growing Candida cells which were suspended in physiological saline solution. One hour before and seven hours after the infection, the animals were treated orally in each case with 10-100 mg/kg of body weight of the preparation. Untreated animals died 3 to 6 days post infection. The survival rate on the 6th day post infection in untreated control animals was about 5%.

[6] = tested on: Microsporum canis; experiment: Antimycotic in vitro activity, serial dilution test (MIC); format: cell-based; settings: Sabouraud's test medium, 28-37° C., 96 hours, read-out: MIC values in μg/ml of nutrient medium
Method: as §1

[7] = tested on: Trichophyton mentagrophytes; experiment: Antimycotic in vivo activity (local) in the experimental guinea-pig trichophytosis model; parameters: species or system guinea-pigs of the Pirbright white strain; settings: 2.5% strength solution
Method: White guinea-pigs of the Pirbright white strain were infected on the shaven, non-scarified back using a microconidia and macroconidia suspension of Trichophyton mentagrophytes. The infected animals were treated locally from. The 3rd day 1x daily p.i. using a 2.5% strength solution of the preparation according to the invention (in dimethyl sulphoxide:glycerol=1:4). In untreated animals, the typical picture of dermatophytosis with reddening, scaling and hair loss up to total integumental defect of the infection site developed in the course of 12 days p.i.

| Structure (SMILES) | MIC [1] [µg/mL] | MIC [2] [µg/mL] | MIC [3] [µg/mL] | MIC [4] [µg/mL] | Action [5] | surviving on the 6th day p.i. [5] [%] | action (in words) [5] | action compared with the known compounds (C) and (D) [5] | MIC [6] [µg/mL] | action (in words) [7] | activity compared with the known compounds (A) and (B) [4] |
| --- | --- | --- | --- | --- | --- | --- | --- | --- | --- | --- | --- |
| OC(Cn1cncn1)(Cn1cncn1)c1cccc(Cl)c1 [A, reference compound] | > 64 | 32 (≈ 105 µM) | > 64 | > 64 |  |  |  |  |  |  |  |
| N#CC1(C(O)(Cn2cncn2)c2ccc(C(F)(F)F)cc2Cl)CC1 (centres unmarked) [I-11] |  |  |  |  | +++++ (very good action = 90% surviving on the 6th day p.i.) | > 80 | good to very good action | better than the compounds (C) and (D) |  |  |  |
| N#CC1(C(O)(Cn2cncn2)c2c(F)cccc2F)CC1 (centres unmarked) [I-15] |  |  |  |  | +++++ (very good action = 90% surviving on the 6th day p.i.) | > 80 | good to very good action | better than the compounds (C) and (D) |  |  |  |
| NC(=O)C1(C(O)(Cn2cncn2)c2ccc(F)cc2)CC1 (centres unmarked) [I-7, 1-(1-Carboxamidocyclopropyl)-1-(4-fluorophenyl)-2-(1,2,4-triazol-1-yl)ethanol] |  |  |  |  | +++++ (very good action = 90% surviving on the 6th day p.i.) | > 80 | good to very good action | better than the compounds (C) and (D) |  |  |  |
| N#CC1(C(O)(Cn2cncn2)c2ccc(Cl)cc2)CC1 (centres unmarked) [I-3, 1-(1-Cyanocyclopropyl)-1-(4-chlorophenyl)-2-(1,2,4-triazol-1-yl)ethanol] | 4 (≈ 13.9 µM) | 2 (≈ 6.93 µM) | 8 (≈ 27.7 µM) | 2 (≈ 6.93 µM) | +++++ (very good action = 90% surviving on the 6th day p.i.) | > 80 | good to very good action | better than the compounds (C) and (D) | 4 (≈ 13.9 µM) | good action | better activity |
| N#CC1(C(O)(Cn2cncn2)c2ccc(F)cc2F)CC1 (centres unmarked) [I-4, 1-(1-Cyanocyclopropyl)-1-(2,4-difluorophenyl)-2-(1,2,4-triazol-1-yl)ethanol] |  |  |  |  | +++++ (very good action = 90% surviving on the 6th day p.i.) | > 80 | good to very good action | better than the compounds (C) and (D) |  |  |  |
| N#CC1(C(O)(Cn2cncn2)c2ccc(F)cc2)CC1 (centres unmarked) [I-2, 1-(1-Cyanocyclopropyl)-1-(4-fluorophenyl)-2-(1,2,4-triazol-1-yl)ethanol] |  |  |  |  | +++++ (very good action = 90% surviving on the 6th day p.i.) | > 80 | good to very good action | better than the compounds (C) and (D) |  | good action |  |
| OC(Cn1cncn1)(Cn1cncn1)c1ccccc1 [B, reference compound] | > 64 | 64 (≈ 237 µM) | > 64 | 64 (≈ 237 µM) |  |  |  |  |  |  |  |
| N#CC1(C(O)(Cn2cncn2)c2ccc(OC(F)(F)F)cc2)CC1 (centres unmarked) [I-9] |  |  |  |  | +++++ (very good action = 90% surviving on the 6th day p.i.) | > 80 | good to very good action | better than the compounds (C) and (D) |  |  |  |
| N#CC1(C(O)(Cn2ccnc2)c2ccc(F)cc2)CC1 (centres unmarked) [I-5, 1-(1-cyanocyclopropyl)-1-(4-fluorophenyl)-2-(imidazol-1-yl)ethanol] | 4 (≈ 14.7 µM) | < 1 | 8 (≈ 29.5 µM) | 8 (≈ 29.5 µM) |  |  |  |  | 4 (≈ 14.7 µM) |  | better activity |
| N#CC1(C(O)(Cn2cncn2)c2ccc(Cl)cc2Cl)CC1 (centres unmarked) [I-16] | 2 (≈ 6.19 µM) | < 1 | 32 (≈ 99 µM) | 16 (≈ 49.5 µM) | +++++ (very good action = 90% surviving on the 6th day p.i.) | > 80 | good to very good action | better than the compounds (C) and (D) | < 1 |  | better activity |
| N#CC1(C(O)(Cn2cncn2)c2ccc(Cl)cc2F)CC1 (centres unmarked) [I-14] | 4 (≈ 13 µM) | < 1 | 16 (≈ 52.2 µM) | 2 (≈ 6.52 µM) | +++++ (very good action = 90% surviving on the 6th day p.i.) | > 80 | good to very good action | better than the compounds (C) and (D) | 4 (≈ 13 µM) |  | better activity |
| N#CC1(C(O)(Cn2cncn2)c2ccccc2Cl)CC1 (centres unmarked) [I-13] |  |  |  |  | ++++ (good action = 80% surviving on the 6th day p.i.) | > 80 | good to very good action | better than the compounds (C) and (D) |  |  |  |
